In patent US9708314B2, “Heterocyclic amide compound” (NISSAN CHEMICAL INDUSTRIES, LTD., priority 2013, dated 2017):

What was measured:
Assay type in all cases: in vivo
[1] = system: Echinochloa oryzacola Vasing.; assay: Test Example 1: herbicidal activity, application before weed generation in submerged conditions; details: Application herbicide amount 320 g/ha; Seventeenth Table
Outline: (§1)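 Pre-emergence application to water surface of submerged pots (4 cm depth, alluvial soil) on sowing day, with 2.5-leaf rice transplanted; emulsion diluted to g/ha rates. Grown in greenhouse at 25–30 °C; 0–5 herbicidal/crop-effect score after three weeks.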

Monochoria vaginalis = assay: as above; details: Application herbicide amount 320 g/ha; Seventeenth Table
Outline: as §1

Scirpus juncoides = assay: as above; details: Application herbicide amount 320 g/ha; Seventeenth Table
Outline: as §1

Abutilon theophrasti = assay: Test Example 4: herbicidal effect by application to foliage (diluvial soil, plastic box); details: application to foliage, application herbicide amount 320 g/ha
Outline: (§2)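 Plants were grown in sterilized diluvial soil in a greenhouse at 25-30° C for 14 days, then sprayed on stems and leaves with water-diluted emulsion formulation at set rates in g/ha. Weed control and crop injury were scored 3 weeks after treatment on a 0-5 herbicidal-ratio scale, from 0 (≤5%) to 5 (≥90%).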

Alopecurus myosuroides = assay: as above; details: application to foliage, application herbicide amount 320 g/ha
Outline: as §2

Amaranthus retroflexus = assay: as above; details: application to foliage, application herbicide amount 320 g/ha
Outline: as §2

Apera spica-venti. = assay: as above; details: application to foliage, application herbicide amount 320 g/ha
Outline: as §2

Avena fatua = assay: as above; details: application to foliage, application herbicide amount 320 g/ha
Outline: as §2

Chenopodium album = assay: as above; details: application to foliage, application herbicide amount 320 g/ha
Outline: as §2

Digitaria ciliaris = assay: as above; details: application to foliage, application herbicide amount 320 g/ha
Outline: as §2

[2] = system: Echinochloa crus-galli var. crus-galli; assay: as above; details: application to foliage, application herbicide amount 320 g/ha
Outline: as §2

Galium spurium = assay: as above; details: application to foliage, application herbicide amount 320 g/ha
Outline: as §2

Lolium multiflorum Lam. = assay: as above; details: application to foliage, application herbicide amount 320 g/ha
Outline: as §2

Setaria viridis = assay: as above; details: application to foliage, application herbicide amount 320 g/ha
Outline: as §2

Stellaria media = assay: as above; details: application to foliage, application herbicide amount 320 g/ha
Outline: as §2

Veronica persica = assay: as above; details: application to foliage, application herbicide amount 320 g/ha
Outline: as §2

[3] = system: Beta vulgaris ssp. vulgaris; assay: Test Example 4: effect on crop by application to foliage (diluvial soil, plastic box); details: application to foliage, application herbicide amount 320 g/ha
Outline: as §2

Brassica campestris L. = assay: as above; details: application to foliage, application herbicide amount 320 g/ha
Outline: as §2

Glycine max = assay: as above; details: application to foliage, application herbicide amount 320 g/ha
Outline: as §2

Triticum aestivum = assay: as above; details: application to foliage, application herbicide amount 320 g/ha
Outline: as §2

Zea mays = assay: as above; details: application to foliage, application herbicide amount 320 g/ha
Outline: as §2

[4] = system: directly sowed Oryza sativa; assay: as above; details: application to foliage, application herbicide amount 320 g/ha
Outline: as §2

SMILES | A: Echinochloa oryzicola Vasing. (herbicidal effect grade) [1] | C: Monochoria vaginalis (herbicidal effect grade) (Monochoria vaginalis) | B: Scirpus juncoides (herbicidal effect grade) (Scirpus juncoides) | M: herbicidal effect on Abutilon theophrasti (Abutilon theophrasti) | J: herbicidal effect on Alopecurus myosuroides (Alopecurus myosuroides) | N: herbicidal effect on Amaranthus retroflexus (Amaranthus retroflexus) | L: herbicidal effect on Apera spica-venti. (Apera spica-venti.) | I: herbicidal effect on Avena fatua (Avena fatua) | O: herbicidal effect on Chenopodium album (Chenopodium album) | F: herbicidal effect on Digitaria ciliaris (Digitaria ciliaris) | H: herbicidal effect on Echinochloa crus-galli var. crus-galli [2] | Q: herbicidal effect on Galium spurium (Galium spurium) | K: herbicidal effect on Lolium multiflorum Lam. (Lolium multiflorum Lam.) | G: herbicidal effect on Setaria viridis (Setaria viridis) | P: herbicidal effect on Stellaria media (Stellaria media) | R: herbicidal effect on Veronica persica (Veronica persica) | f: effect on crop, Beta vulgaris ssp. vulgaris [3] | g: effect on crop, Brassica campestris L. (Brassica campestris L.) | d: effect on crop, Glycine max (Glycine max) | e: effect on crop, Triticum aestivum (Triticum aestivum) | further results
COc1ccc(N(C)c2nnc3c(C(=O)Nc4nnc(C)o4)ccc(C(F)(F)F)n23)cc1 [1-165] | 4 (Herbicidal ratio of 70% or more and less than 90%) | 4 (Herbicidal ratio of 70% or more and less than 90%) | 3 (Herbicidal ratio of 40% or more and less than 70%) | 3 (Herbicidal ratio of 40% or more and less than 70%) | 0 (Herbicidal ratio of 5% or less (almost no effect)) | 4 (Herbicidal ratio of 70% or more and less than 90%) | 2 (Herbicidal ratio of 20% or more and less than 40%) | 0 (Herbicidal ratio of 5% or less (almost no effect)) | 5 (Herbicidal ratio of 90% or more (almost completely withered)) | 3 (Herbicidal ratio of 40% or more and less than 70%) | 4 (Herbicidal ratio of 70% or more and less than 90%) | 2 (Herbicidal ratio of 20% or more and less than 40%) | 0 (Herbicidal ratio of 5% or less (almost no effect)) | 1 (Herbicidal ratio of 5% or more and less than 20%) | 4 (Herbicidal ratio of 70% or more and less than 90%) | 4 (Herbicidal ratio of 70% or more and less than 90%) | 5 (Herbicidal ratio of 90% or more (almost completely withered)) | 4 (Herbicidal ratio of 70% or more and less than 90%) | 1 (Herbicidal ratio of 5% or more and less than 20%) | 0 (Herbicidal ratio of 5% or less (almost no effect)) | c: effect on crop, Zea mays (Zea mays): 0 (Herbicidal ratio of 5% or less (almost no effect)); b: effect on crop, directly sowed Oryza sativa [4]: 0 (Herbicidal ratio of 5% or less (almost no effect))
COc1ccc(CN(C)c2nnc3c(C(=O)Nc4nnc(C)o4)ccc(C(F)(F)F)n23)cc1 [1-167] | 4 (Herbicidal ratio of 70% or more and less than 90%) | 0 (Herbicidal ratio of 5% or less (almost no effect)) | 2 (Herbicidal ratio of 20% or more and less than 40%) | 2 (Herbicidal ratio of 20% or more and less than 40%) | 0 (Herbicidal ratio of 5% or less (almost no effect)) | 2 (Herbicidal ratio of 20% or more and less than 40%) | 1 (Herbicidal ratio of 5% or more and less than 20%) | 1 (Herbicidal ratio of 5% or more and less than 20%) | 5 (Herbicidal ratio of 90% or more (almost completely withered)) | 0 (Herbicidal ratio of 5% or less (almost no effect)) | 2 (Herbicidal ratio of 20% or more and less than 40%) | 2 (Herbicidal ratio of 20% or more and less than 40%) | 1 (Herbicidal ratio of 5% or more and less than 20%) | 0 (Herbicidal ratio of 5% or less (almost no effect)) | 5 (Herbicidal ratio of 90% or more (almost completely withered)) | 4 (Herbicidal ratio of 70% or more and less than 90%) | 5 (Herbicidal ratio of 90% or more (almost completely withered)) | 0 (Herbicidal ratio of 5% or less (almost no effect)) | 1 (Herbicidal ratio of 5% or more and less than 20%) | 0 (Herbicidal ratio of 5% or less (almost no effect)) | c: effect on crop, Zea mays (Zea mays): 0 (Herbicidal ratio of 5% or less (almost no effect)); b: effect on crop, directly sowed Oryza sativa [4]: 0 (Herbicidal ratio of 5% or less (almost no effect))
Cn1nnnc1NC(=O)c1ccc(C(F)(F)F)n2c(C3CC3)nnc12 [2-005] | 5 (Herbicidal ratio of 90% or more (almost completely withered)) | 5 (Herbicidal ratio of 90% or more (almost completely withered)) | 5 (Herbicidal ratio of 90% or more (almost completely withered)) | 5 (Herbicidal ratio of 90% or more (almost completely withered)) | 3 (Herbicidal ratio of 40% or more and less than 70%) | 5 (Herbicidal ratio of 90% or more (almost completely withered)) | 4 (Herbicidal ratio of 70% or more and less than 90%) | 3 (Herbicidal ratio of 40% or more and less than 70%) | 5 (Herbicidal ratio of 90% or more (almost completely withered)) | 5 (Herbicidal ratio of 90% or more (almost completely withered)) | 5 (Herbicidal ratio of 90% or more (almost completely withered)) | 4 (Herbicidal ratio of 70% or more and less than 90%) | 2 (Herbicidal ratio of 20% or more and less than 40%) | 4 (Herbicidal ratio of 70% or more and less than 90%) | 5 (Herbicidal ratio of 90% or more (almost completely withered)) | 5 (Herbicidal ratio of 90% or more (almost completely withered)) | 5 (Herbicidal ratio of 90% or more (almost completely withered)) | 4 (Herbicidal ratio of 70% or more and less than 90%) | 3 (Herbicidal ratio of 40% or more and less than 70%) | 3 (Herbicidal ratio of 40% or more and less than 70%) | c: effect on crop, Zea mays (Zea mays): 1 (Herbicidal ratio of 5% or more and less than 20%); b: effect on crop, directly sowed Oryza sativa [4]: 0 (Herbicidal ratio of 5% or less (almost no effect))
CCC(CC)c1nnc2c(C(=O)Nc3nnnn3C)ccc(C(F)(F)F)n12 [2-006] | 5 (Herbicidal ratio of 90% or more (almost completely withered)) | 5 (Herbicidal ratio of 90% or more (almost completely withered)) | 5 (Herbicidal ratio of 90% or more (almost completely withered)) | 5 (Herbicidal ratio of 90% or more (almost completely withered)) | 2 (Herbicidal ratio of 20% or more and less than 40%) | 5 (Herbicidal ratio of 90% or more (almost completely withered)) | 4 (Herbicidal ratio of 70% or more and less than 90%) | 3 (Herbicidal ratio of 40% or more and less than 70%) | 5 (Herbicidal ratio of 90% or more (almost completely withered)) | 5 (Herbicidal ratio of 90% or more (almost completely withered)) | 5 (Herbicidal ratio of 90% or more (almost completely withered)) | 3 (Herbicidal ratio of 40% or more and less than 70%) | 1 (Herbicidal ratio of 5% or more and less than 20%) | 5 (Herbicidal ratio of 90% or more (almost completely withered)) | 5 (Herbicidal ratio of 90% or more (almost completely withered)) | 5 (Herbicidal ratio of 90% or more (almost completely withered)) | 5 (Herbicidal ratio of 90% or more (almost completely withered)) | 4 (Herbicidal ratio of 70% or more and less than 90%) | 4 (Herbicidal ratio of 70% or more and less than 90%) | 3 (Herbicidal ratio of 40% or more and less than 70%) | c: effect on crop, Zea mays (Zea mays): 1 (Herbicidal ratio of 5% or more and less than 20%); b: effect on crop, directly sowed Oryza sativa [4]: 5 (Herbicidal ratio of 90% or more (almost completely withered))
